Assay results as given in US5698522A, “6-position modified decapeptide LHRH antagonists” (Abbott Laboratories, priority 1995, dated 1997).
*1 amine or outer side, *2 acyl side, *3 side chain or, on linkers, in order; H or OH if unused. Where a SMILES comes first, the peptide text is derived from it. Side-chain parts run from the residue outwards. [ ]: non-standard residue; d: D form. The star is where a group is joined. Shikimoyl = O=C(C1=C[C@@H](O)[C@@H](O)[C@H](O)C1)*; dPhe(4-Cl) = N[C@H](Cc1ccc(Cl)cc1)C(=O)O; d2Nal = N[C@H](Cc1ccc2ccccc2c1)C(=O)O; Lys(iPr) = CC(C)NCCCC[C@H](N)C(=O)O; NMeY = CN[C@@H](Cc1ccc(O)cc1)C(=O)O; Ethylenediamine = C(CN[*:2])N[*:1]; d3Pal = N[C@H](Cc1cccnc1)C(=O)O; Salicyloyl = O=C(c1ccccc1O)*; Nicotinoyl = O=C(c1cccnc1)*; 2Furoyl = O=C(c1ccco1)*; CO = O=C([*:1])[*:2]; Ahx = NCCCCCC(=O)O; GABA = NCCCC(=O)O; azaGly = NNC(=O)O; βAla = NCCC(=O)O

Molecular target: T1, LHRH receptor (Rattus norvegicus, UniProt P30969)
T1 construct: endogenous in cells
T1 sequence (P30969 1-327): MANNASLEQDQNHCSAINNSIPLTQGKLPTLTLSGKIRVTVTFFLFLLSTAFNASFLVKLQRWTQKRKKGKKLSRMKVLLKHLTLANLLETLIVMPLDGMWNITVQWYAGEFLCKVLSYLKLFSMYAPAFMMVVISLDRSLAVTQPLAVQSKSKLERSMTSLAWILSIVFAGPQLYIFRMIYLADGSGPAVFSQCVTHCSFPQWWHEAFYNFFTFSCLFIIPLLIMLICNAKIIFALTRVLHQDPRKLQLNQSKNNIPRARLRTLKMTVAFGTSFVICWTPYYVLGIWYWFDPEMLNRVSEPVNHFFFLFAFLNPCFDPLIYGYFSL
Test: in vitro LHRH antagonist potency (pA2) against the agonist leuprolide
Format: cell-based
Settings: negative logarithm of the antagonist concentration which shifts the response curve produced by the agonist leuprolide to two-fold higher concentration
Experimental: Representative compounds of the present invention were evaluated in in vitro tests for receptor binding (pKI) and for LHRH antagonist potency (pA2). The tests employed the methods detailed in F. Haviv, et al., J. Med. Chem., 32: 2340-2344 (1989). The receptor binding affinities (pKI) are the negative logarithms of the equilibtirum dissociation constants (pA2) are the negative logarithms of the concentration of antagonist which shift the response curve roduced by the agonist leuprolide to two-fold higher concentration. (Leuprolide is the LHRH agonist having the structure 5-oxo-Pro^1 -His^2 -Trp^3 -Ser^4 -Tyr^5 -D-Leu^6 -Leu^7 -Arg^8 -Pro^9 -NHEt and is disclosed and claimed in U.S. Pat. No. 4,005,063.) Typically pA2 values of 9.5 or greater are indicative of good LHRH antagonist potency.

SMILES | Kb [nM]
CC(=O)N[C@H](Cc1ccc2ccccc2c1)C(=O)N[C@H](Cc1ccc(Cl)cc1)C(=O)N[C@H](Cc1cccnc1)C(=O)N[C@@H](CO)C(=O)N(C)[C@@H](Cc1ccc(O)cc1)C(=O)N[C@H](CCCCNC(=O)CCCCCNC(=O)CCNC(=O)c1cccnc1)C(=O)N[C@@H](CC(C)C)C(=O)N[C@@H](CCCCNC(C)C)C(=O)N1CCC[C@H]1C(=O)N[C@H](C)C(N)=O [Example 19a, NAc-D2Nal-D4ClPhe^2 -D3Pal^3 -Ser^4 -NMeTyr^5 -DLys[N-epsilon-(N'-epsilon-Aminocaproyl)(N"-beta-Alanyl)-Nicotinyl]^6-Leu^7 -Lys(N-epsilon-Isopropyl)^8 -Pro^9 -DAla^10 NH2] (Ac-[d2Nal][dPhe(4-Cl)][d3Pal]S[NMeY][dK]([Ahx-βAla-Nicotinoyl])L[Lys(iPr)]P[dA]-NH2) | 0.024
CC(=O)N[C@H](Cc1ccc2ccccc2c1)C(=O)N[C@H](Cc1ccc(Cl)cc1)C(=O)N[C@H](Cc1cccnc1)C(=O)N[C@@H](CO)C(=O)N(C)[C@@H](Cc1ccc(O)cc1)C(=O)N[C@H](CCCCNC(=O)CNC(=O)c1ccccc1O)C(=O)N[C@@H](CC(C)C)C(=O)N[C@@H](CCCCNC(C)C)C(=O)N1CCC[C@H]1C(=O)N[C@H](C)C(N)=O [Example 19b, NAc-D2Nal^1 -D4ClPhe^2 -D3Pal^3 -Ser^4 -NMeTyr^5 -DLys[N-epsilon-Gly-Salicyl]^6 -Leu^7 -Lys(N-epsilon-Isopropyl)^8 -Pro^9 -DAla^10 NH2] (Ac-[d2Nal][dPhe(4-Cl)][d3Pal]S[NMeY][dK]([Gly-Salicyloyl])L[Lys(iPr)]P[dA]-NH2) | 0.00661
CC(=O)N[C@H](Cc1ccc2ccccc2c1)C(=O)N[C@H](Cc1ccc(Cl)cc1)C(=O)N[C@H](Cc1cccnc1)C(=O)N[C@@H](CO)C(=O)N(C)[C@@H](Cc1ccc(O)cc1)C(=O)N[C@H](CCCCNC(=O)CNC(=O)CNC(=O)c1cccnc1)C(=O)N[C@@H](CC(C)C)C(=O)N[C@@H](CCCCNC(C)C)C(=O)N1CCC[C@H]1C(=O)N[C@H](C)C(N)=O [Example 19c, NAc-D2Nal^1 -D4ClPhe^2 -D3Pal^3 -Ser^4 -NMeTyr^5 -DLys[N-epsilon-Gly-Gly-Nicotinyl]^6 -Leu^7 -Lys(N-epsilon-Isopropyl)^8 -Pro^9 -DAla^10 NH2] (Ac-[d2Nal][dPhe(4-Cl)][d3Pal]S[NMeY][dK]([Gly-Gly-Nicotinoyl])L[Lys(iPr)]P[dA]-NH2) | 0.00331
CC(=O)N[C@H](Cc1ccc2ccccc2c1)C(=O)N[C@H](Cc1ccc(Cl)cc1)C(=O)N[C@H](Cc1cccnc1)C(=O)N[C@@H](CO)C(=O)N(C)[C@@H](Cc1ccc(O)cc1)C(=O)N[C@H](CCCCNC(=O)CCNC(=O)NNC(=O)c1cccnc1)C(=O)N[C@@H](CC(C)C)C(=O)N[C@@H](CCCCNC(C)C)C(=O)N1CCC[C@H]1C(=O)N[C@H](C)C(N)=O [Example 25a, NAc-D2Nal^1 -D4ClPhe^2 -D3Pal^3 -Ser^4 -NMeTyr^5 -DLys[N-epsilon-(beta-Alanyl)-Azagly-Nicotinyl]^6 -Leu^7 -Lys(N-epsilon-Isopropyl)^8 -Pro^9 -DAla^10 NH2] (Ac-[d2Nal][dPhe(4-Cl)][d3Pal]S[NMeY][dK]([βAla-azaGly-Nicotinoyl])L[Lys(iPr)]P[dA]-NH2) | 0.0363
CC(=O)N[C@H](Cc1ccc2ccccc2c1)C(=O)N[C@H](Cc1ccc(Cl)cc1)C(=O)N[C@H](Cc1cccnc1)C(=O)N[C@@H](CO)C(=O)N(C)[C@@H](Cc1ccc(O)cc1)C(=O)N[C@H](CCCCNC(=O)CCCNC(=O)NNC(=O)c1cccnc1)C(=O)N[C@@H](CC(C)C)C(=O)N[C@@H](CCCCNC(C)C)C(=O)N1CCC[C@H]1C(=O)N[C@H](C)C(N)=O [Example 25b, NAc-D2Nal^1 -D4ClPhe^2 -D3Pal^3 -Ser^4 -NMeTyr^5 -DLys[N-epsilon-(gamma-Aminobutyryl)-Azagly-Nicotinyl]^6 -Leu^7 -Lys(N-epsilon-Isopropyl)^8 -Pro^9 -DAla^10 NH2] (Ac-[d2Nal][dPhe(4-Cl)][d3Pal]S[NMeY][dK]([GABA-azaGly-Nicotinoyl])L[Lys(iPr)]P[dA]-NH2) | 0.0407
CC(=O)N[C@H](Cc1ccc2ccccc2c1)C(=O)N[C@H](Cc1ccc(Cl)cc1)C(=O)N[C@H](Cc1cccnc1)C(=O)N[C@@H](CO)C(=O)N(C)[C@@H](Cc1ccc(O)cc1)C(=O)N[C@H](CCCCNC(=O)NCCNC(=O)c1ccco1)C(=O)N[C@@H](CC(C)C)C(=O)N[C@@H](CCCNC(=N)N)C(=O)N1CCC[C@H]1C(=O)N[C@H](C)C(N)=O [Example 36, NAc-D2Nal^1 -D4ClPhe^2 -D3Pal^3 -Ser^4 -NMeTyr^5 -DLys[N-epsilon-(N'-Carbonyl-Diaminoethane-N"-Furoyl)]^6 -Leu^7 -Arg^8 -Pro^9 -DAla^10 NH2] (Ac-[d2Nal][dPhe(4-Cl)][d3Pal]S[NMeY][dK]([CO-Ethylenediamine-2Furoyl])LRP[dA]-NH2) | 0.0107
CC(=O)N[C@H](Cc1ccc2ccccc2c1)C(=O)N[C@H](Cc1ccc(Cl)cc1)C(=O)N[C@H](Cc1cccnc1)C(=O)N[C@@H](CO)C(=O)N(C)[C@@H](Cc1ccc(O)cc1)C(=O)N[C@H](CCCCNC(=O)NNC(=O)c1ccco1)C(=O)N[C@@H](CC(C)C)C(=O)N[C@@H](CCCNC(=N)N)C(=O)N1CCC[C@H]1C(=O)N[C@H](C)C(N)=O [Example 37a, NAc-D2Nal^1 -D4ClPhe^2 -D3Pal^3 -Ser^4 -NMeTyr^5 -DLys(N-epsilon-Azagly-2-Furoyl)^6 -Leu^7 -Arg^8 -Pro^9 -DAla^10 NH2] (Ac-[d2Nal][dPhe(4-Cl)][d3Pal]S[NMeY][dK]([azaGly-2Furoyl])LRP[dA]-NH2) | 0.0166
CC(=O)N[C@H](Cc1ccc2ccccc2c1)C(=O)N[C@H](Cc1ccc(Cl)cc1)C(=O)N[C@H](Cc1cccnc1)C(=O)N[C@@H](CO)C(=O)N(C)[C@@H](Cc1ccc(O)cc1)C(=O)N[C@H](CCCCNC(=O)NNC(=O)c1cccnc1)C(=O)N[C@@H](CC(C)C)C(=O)N[C@@H](CCCNC(=N)N)C(=O)N1CCC[C@H]1C(=O)N[C@H](C)C(N)=O [Example 37b, NAc-D2Nal^1 -D4ClPhe^2 -D3Pal^3 -Ser^4 -NMeTyr^5 -DLys(N-epsilon-Azagly-Nicotinyl)^6 -Leu^7 -Arg^8 -Pro^9 -DAla^10 NH2] (Ac-[d2Nal][dPhe(4-Cl)][d3Pal]S[NMeY][dK]([azaGly-Nicotinoyl])LRP[dA]-NH2) | 0.00562
CC(=O)N[C@H](Cc1ccc2ccccc2c1)C(=O)N[C@H](Cc1ccc(Cl)cc1)C(=O)N[C@H](Cc1cccnc1)C(=O)N[C@@H](CO)C(=O)N(C)[C@@H](Cc1ccc(O)cc1)C(=O)N[C@H](CCCCNC(=O)[C@@H](C)NC(=O)C1=C[C@@H](O)[C@@H](O)[C@H](O)C1)C(=O)N[C@@H](CC(C)C)C(=O)N[C@@H](CCCNC(=N)N)C(=O)N1CCC[C@H]1C(=O)N[C@H](C)C(N)=O [Example 38a, NAc-D2Nal^1 -D4ClPhe^2 -D3Pal^3 -Ser^4 -NMeTyr^5 -DLys(N-epsilon-DAla-Shikimyl)^6 -Leu^7 -Arg^8 -Pro^9 -DAla^10 NH2] (Ac-[d2Nal][dPhe(4-Cl)][d3Pal]S[NMeY][dK]([dA-Shikimoyl])LRP[dA]-NH2) | 0.0282
CC(=O)N[C@H](Cc1ccc2ccccc2c1)C(=O)N[C@H](Cc1ccc(Cl)cc1)C(=O)N[C@H](Cc1cccnc1)C(=O)N[C@@H](CO)C(=O)N(C)[C@@H](Cc1ccc(O)cc1)C(=O)N[C@H](CCCCNC(=O)[C@H](NC(=O)C1=C[C@@H](O)[C@@H](O)[C@H](O)C1)[C@H](C)O)C(=O)N[C@@H](CC(C)C)C(=O)N[C@@H](CCCNC(=N)N)C(=O)N1CCC[C@H]1C(=O)N[C@H](C)C(N)=O [Example 38d, NAc-D2Nal^1 -D4ClPhe^2 -D3Pal^3 -Ser^4 -NMeTyr^5 -DLys(N-epsilon-DThr-Shikimyl)^6 -Leu^7 -Arg^8 -Pro^9 -DAla^10 NH2] (Ac-[d2Nal][dPhe(4-Cl)][d3Pal]S[NMeY][dK]([dT-Shikimoyl])LRP[dA]-NH2) | 0.02
CC(=O)N[C@H](Cc1ccc2ccccc2c1)C(=O)N[C@H](Cc1ccc(Cl)cc1)C(=O)N[C@H](Cc1cccnc1)C(=O)N[C@@H](CO)C(=O)N(C)[C@@H](Cc1ccc(O)cc1)C(=O)N[C@H](CCCCNC(=O)[C@@H](Cc1c[nH]cn1)NC(=O)C1=C[C@@H](O)[C@@H](O)[C@H](O)C1)C(=O)N[C@@H](CC(C)C)C(=O)N[C@@H](CCCNC(=N)N)C(=O)N1CCC[C@H]1C(=O)N[C@H](C)C(N)=O [Example 38e, NAc-D2Nal^1 -D4ClPhe^2 -D3Pal^3 -Ser^4 -NMeTyr^5 -DLys(N-epsilon-DHis-Shikimyl)^6 -Leu^7 -Arg^8 -Pro^9 -DAla^10 NH2] (Ac-[d2Nal][dPhe(4-Cl)][d3Pal]S[NMeY][dK]([dH-Shikimoyl])LRP[dA]-NH2) | 0.0437
CC(=O)N[C@H](Cc1ccc2ccccc2c1)C(=O)N[C@H](Cc1ccc(Cl)cc1)C(=O)N[C@H](Cc1cccnc1)C(=O)N[C@@H](CO)C(=O)N(C)[C@@H](Cc1ccc(O)cc1)C(=O)N[C@H](CCCCNC(=O)[C@@H](Cc1cccnc1)NC(=O)C1=C[C@@H](O)[C@@H](O)[C@H](O)C1)C(=O)N[C@@H](CC(C)C)C(=O)N[C@@H](CCCNC(=N)N)C(=O)N1CCC[C@H]1C(=O)N[C@H](C)C(N)=O [Example 38f, NAc-D2Nal^1 -D4ClPhe^2 -D3Pal^3 -Ser^4 -NMeTyr^5 -DLys(N-epsilon-D3Pal-Shikimyl)^6 -Leu^7 -Arg^8 -Pro^9 -DAla^10 NH2] (Ac-[d2Nal][dPhe(4-Cl)][d3Pal]S[NMeY][dK]([d3Pal-Shikimoyl])LRP[dA]-NH2) | 0.0214
